Measured values as given in patent publication US20230117034A1, “PYRAZOLOTRIAZINES” (Bayer Aktiengesellschaft, priority 2019, published 2023).

Key:
[1] = tested on: MDA-MB-231, human breast cancer cells; assay: Proliferation assay MDA-MB-231 (crystal violet, 4 days); format: cell-based; conditions: Homo sapiens, MDA-MB-231, 96 h, MDA-MB-231 cells, median, read-out: Prolif-MDA MB-231, IC50-[mol/l] (median)
Summary of the method: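 Crystal violet proliferation read-out after 4 days of compound exposure (0.01-10 µmol/L; solvent 0.1% DMSO). Extinction at 595 nm, set between zero-point (0%) and vehicle (100%), fitted with 4 parameters to give IC50.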

[2] = tested on: BRCA1 mRNA expression in MDA-MB-231 cells; assay: qRT-PCR assay: BRCA1 mRNA expression in MDA-MB-231; format: cell-based, human; conditions: Homo sapiens, MDA-MB-231, Inhibition of BRCA1 mRNA expression in MDA-MB-231 cells; median; read-out: RTqPCR-MDA-MB-231, IC50, BRCA1 (median)
Summary of the method: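 Human breast cancer cells, 200,000/well, were treated with test agents for 24 h without interruption after a 24 h settling period. Gene expression came from qPCR on cDNA made from 600 ng RNA, relative to GAPDH.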

CDK2/CycE = target: T1, CDK2/CycE (Homo sapiens, UniProt P24941); assay: CDK2/CycE kinase assay (TR-FRET, 2 mM ATP); format: biochemical; conditions: 2 mM ATP (high ATP); median; read-out: CDK2/CyclinE, 2 mM ATP (high ATP), IC50 (median)
T1 construct: purchased ProQinase GmbH (Freiburg, Germany); host or cells: insect cells (Sf9)
Summary of the method: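 Biotin-peptide phosphorylation (0.75 µM substrate, 2 mM ATP final, 25 min, 22 °C) by Sf9-expressed GST-CDK2/GST-CycE, after a 15-min compound pre-binding step. Inhibition scaled between enzyme-free (100%) and uninhibited (0%) wells.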

Row | Compound | IC50 [1] [nM] | IC50 [2] [nM] | IC50 (CDK2/CycE) [nM]
1 | C[C@@H]1CN(c2nc(NCc3nc4ccccc4[nH]3)n3ncc(C4CC4)c3n2)C[C@H](C)N1 [Example 248, N-[(1H-benzimidazol-2-yl)methyl]-8-cyclopropyl-2-[(3R,5S)-3,5-dimethylpiperazin-1-yl]pyrazolo[1,5-a][1,3,5]triazin-4-amine] | 12 | 1.6 | > 20000
2 | Fc1ccc2[nH]c(CNc3nc(N4CCOCC4)nc4c(CC(F)(F)F)cnn34)nc2c1F [Example 268, N-[(4,5-difluoro-1H-benzimidazol-2-yl)methyl]-2-(morpholin-4-yl)-8-(2,2,2-trifluoroethyl)pyrazolo[1,5-a][1,3,5]triazin-4-amine] | 9.43 | 3.23 | > 20000
3 | Fc1ccc2[nH]c(CNc3nc(N4CCOCC4)nc4c(CC(F)(F)F)cnn34)nc2c1 [Example 308, N-[(5-fluoro-1H-benzimidazol-2-yl)methyl]-2-(morpholin-4-yl)-8-(2,2,2-trifluoroethyl)pyrazolo[1,5-a][1,3,5]triazin-4-amine] | 27.9 | 5.46 | > 20000
4 | CN(CC(C)(C)O)c1nc(NCc2nc3c(F)cccc3[nH]2)n2ncc(C3CC3)c2n1 [Example 295, 1-[(8-cyclopropyl-4-{[(4-fluoro-1H-benzimidazol-2-yl)methyl]amino}pyrazolo[1,5-a][1,3,5]triazin-2-yl)(methyl)amino]-2-methylpropan-2-ol] | 23.7 | 4.81 | 2060
5 | N[C@H]1[C@@H]2C[C@H]1CN(c1nc(NCc3nc4ccccc4[nH]3)n3ncc(Br)c3n1)C2 [Example 288, 2-[(1R,5S,6r)-6-amino-3-azabicyclo[3.1.1]heptan-3-yl]-N-[(1H-benzimidazol-2-yl)methyl]-8-bromopyrazolo[1,5-a][1,3,5]triazin-4-amine] | 5.68 | 2.69 | 2640
6 | c1ccc2[nH]c(CNc3nc(N4C[C@@H]5C[C@H]4CO5)nc4c(C5CC5)cnn34)nc2c1 [Example 254, N-[(1H-benzimidazol-2-yl)methyl]-8-cyclopropyl-2-[(1S,4S)-2-oxa-5-azabicyclo[2.2.1]heptan-5-yl]pyrazolo[1,5-a][1,3,5]triazin-4-amine] | 181 | 60.5 | > 20000
7 | CN1CCN(c2nc(NCc3nc4ccccc4[nH]3)n3ncc(C4CC4)c3n2)CC1 [Example 246, N-[(1H-benzimidazol-2-yl)methyl]-8-cyclopropyl-2-(4-methylpiperazin-1-yl)pyrazolo[1,5-a][1,3,5]triazin-4-amine] | 121 | 10.3 | > 20000
8 | FC1(F)CC1c1cnn2c(NCc3nc4ccccc4[nH]3)nc(N3CCOCC3)nc12 (stereo not drawn) [Example 279, N-[(1H-benzimidazol-2-yl)methyl]-8-(2,2-difluorocyclopropyl)-2-(morpholin-4-yl)pyrazolo[1,5-a][1,3,5]triazin-4-amine] | 34.8 | 12 | > 20000
9 | CN1CCN(c2nc(NCc3nc4cc(F)c(Cl)cc4[nH]3)n3ncc(C4CC4)c3n2)CC1 [Example 309, N-[(6-chloro-5-fluoro-1H-benzimidazol-2-yl)methyl]-8-cyclopropyl-2-(4-methylpiperazin-1-yl)pyrazolo[1,5-a][1,3,5]triazin-4-amine] | 6.31 | 5.83 | > 20000
10 | CN1CCN(c2nc(NCc3nc4cc(F)c(F)cc4[nH]3)n3ncc(C4CC4)c3n2)CC1 [Example 311, 8-cyclopropyl-N-[(5,6-difluoro-1H-benzimidazol-2-yl)methyl]-2-(4-methylpiperazin-1-yl)pyrazolo[1,5-a][1,3,5]triazin-4-amine] | 16.7 | 3.42 | > 20000
11 | FC(F)(F)Cc1cnn2c(NCc3nc4cc(Cl)c(Cl)cc4[nH]3)nc(N3CCOCC3)nc12 [Example 302, N-[(5,6-dichloro-1H-benzimidazol-2-yl)methyl]-2-(morpholin-4-yl)-8-(2,2,2-trifluoroethyl)pyrazolo[1,5-a][1,3,5]triazin-4-amine] | 11.9 | 9.06 | > 20000
